Laboratory results published in US12082584B2, “BOC-butenolide, an antifouling compound that has potent ability to inhibit the settlement of marine invertebrate larvae” (The Hong Kong University of Science and Technology, priority 2021, dated 2024).

Columns and labels:
Balanus amphitrite = test: Anti-larval settlement bioassay of barnacle cyprids (settlement and toxic effects); assay type: in vivo; conditions: for settlement rate: cyprids
Description: Adult A. amphitrite colonies were collected from Tso Wo Hang Pier (22°23′32.1″N 114°17′18.7″E), Hong Kong, from April to June 2018. The adults were kept in a water tank with running seawater at the Coastal Marine Laboratory (the Hong Kong University of Science and Technology) for no more than a week before experimental use. Adults were induced under light sources for 1 h to hatch and the larvae were obtained using the method described previously by Harder et al. (2001), which is hereby incorporated by reference in its entirety. The nauplii larvae newly released from the adults were reared on diatom Chaetoceros gracilis Schütt. The seawater culture medium was replaced with fresh FSW and algae every day, and the nauplii reached the competent stage, known as cyprid, after 4 d of incubation at around 28° C.
The test compounds were dissolved with a small amount of DMSO. The test compounds were used in six concentrations from 100 ppm to 3.125 ppm with 2-fold serial dilution. The same amount of DMSO was used as the negative control for all testing concentrations. Approximately 20±2 individual A. amphitrite cyprids were placed into each well of the 24-well polystyrene culture plate containing 2 mL of FSW and were subjected to different treatments. For all treatments and controls, three replicates were performed. The plates were then incubated at 25° C. in darkness. After 48 h, the number of settled and swimming larvae were counted using Leica MZ6 microscope, and possible toxic effects were also noted.

fouling organisms = test: Field test of coated PVC panels immersed in seawater; assay type: in vivo; conditions: PCL-PU coating
Description: (§1) The polymer/antifoulant coatings in subject invention were prepared using the solution casting method described by Ding et al. 2018. The coating was prepared by dissolving poly(ε-caprolactone) based polyurethane (PCL-PU) and BOC-butenolide, in different proportions (i.e. 95 wt % polymer and 5 wt % antifoulant for 5% antifoulant coating), in xylene with vigorous stirring until all solids have dissolved to form a uniform solution. The solution was applied onto the surface of the panels, either epoxy panel (25 mm×75 mm) for release rate determination or PVC panels (53 mm×125 mm) for field test, and the panels were then placed under room temperature for all solvent to evaporate and form a continuous coating.
The field tests were conducted at a fish farm in Yung Shue O, Hong Kong (114°21′E, 22°24′N) from January to March 2018. PVC panels (53 mm×125 mm) covered with coatings were immersed in seawater at a depth of 1 m from surface. The panels were retrieved once every month to be washed gently with seawater to remove dirt and photographed before being placed back in the sea. The antifouling potential of different panels was compared to determine the efficiency of the coatings. […] The percentage of area covered by foulers was calculated from the ratio of total fouling area to the panel area in which the area was highlighted by threshold function in ImageJ. […]

[1] = Antifoulant release rate from PCL-PU coatings in artificial seawater (HPLC); assay type: physicochemical
Description: as §1
The release rate of BOC-butenolide was determined by HPLC for quantification. The polymer/antifoulant coatings were prepared on an epoxy panel (25 mm×75 mm). The coated panels were then put into ASW. At certain time points (day 1, 8, 15, 22, 29, 50, 71, 92 after immersion onto ASW), the panels were transferred to individual containers with 100 mL of fresh ASW. […]

Hydroides elegans = test: Anti-larval settlement bioassay of H. elegans larvae (settlement and toxic effects); assay type: in vivo
Description: Adult H. elegans colonies were collected from a fish farm at Yung Shue O, Hong Kong (22°24′N, 114°21′E) from March to April 2019. The adults were kept in a water tank with running seawater at the Coastal Marine Laboratory (the Hong Kong University of Science and Technology) for no more than 3 days before experimental use. The larvae were collected according to the methods described by Qian and Pechenik (1998). The tube of the adults was gently cracked with forceps to release the gametes. Oocytes were then mixed with the sperm and transferred to a new container with 500 mL FSW for fertilization. Larvae were reared on microalga Isochrysis galbana (Tahitian strain) after hatching. The seawater culture medium was replaced with fresh FSW and algae every day, and the trochophore-stage larvae reached the competent stage after 5 d of incubation at around 25° C.
The test compounds were dissolved with a small amount of DMSO. The test compounds were used at six different concentrations with a 2-fold serial dilution from 100 ppm to 3.125 ppm. The same amount of DMSO was used as the negative control for all testing concentrations. Approximately 10±2 individuals of H. elegans larvae were put into each well of a 24-well polystyrene culture plate that contained 2 mL of FSW with different concentrations of test solution. Approximately 10^−4 molarity of 3-isobutyl-1-methylxanthine was added into each well as an inducer to induce the settlement of H. elegans larvae (Xu et al., 2010). The plates were then incubated at 25° C. in darkness. After 24 h, the number of settled and swimming larvae were counted using Leica MZ6 microscope, and possible toxic effects were also noted.

[2] = Stability of BOC-butenolide; assay type: physicochemical; conditions: compared to butenolide
Description: The stability of BOC-butenolide was measured by the concentration changes of BOC-butenolide in ASW throughout 3 months. The starting nominal concentration of BOC-butenolide was 200 ppm. At every time point, 5 mL of the solution was drawn and mixed with 10 mL dichloromethane (DCM). The DCM fraction with the analyte was dried under nitrogen gas, redissolved reconcentrated in 1 mL of methanol and subjected to above HPLC analysis.

initial release rate ([1]; 10 wt % samples in PCL-PU coating): 150 μg cm^−2 day^−1 | time the coating can still release BOC-butenolide ([1]; PCL-PU coating): at least 2 months | stability [2]: increased
SMILES: CC(C)(C)OC(=O)NCCCCCC1C=CC(=O)O1 (stereo not shown) [BOC-butenolide, Tert-butyl (5-(5-oxo-2,5-dihydrofuran-2yl)pentyl)carbamate]
settlement rate (Balanus amphitrite; 3.125 ppm, 48 h): around 70% | toxicity (larval death rate) (Balanus amphitrite; 25 ppm and below): did not show any toxicity | settlement rate (Balanus amphitrite; 25 ppm, 48 h): around 3% | attachment of barnacle cyprids (Balanus amphitrite; 50 to 100 ppm, 48 h): inhibits the attachment | AF ability to resist the attachment of the fouling organisms (fouling organisms): relatively good AF ability | settlement rate (Hydroides elegans; 3.125 ppm, 24 h): up to 80% | toxicity (larval death rate) (Hydroides elegans; 25 ppm and below): did not show any toxicity | settlement rate (Hydroides elegans; 25 ppm, 24 h, significant difference with control): around 20% | larval settlement (Hydroides elegans; 50 and 100 ppm, 24 h): no larval settlement | death (Hydroides elegans; 50 ppm): around 10%
